Results taken from publication PMC4303209, “A novel phosphatidylinositol 3-kinase (PI3K) inhibitor directs a potent FOXO-dependent, p53-independent cell cycle arrest phenotype characterized by the differential induction of a subset of FOXO-regulated genes” (Breast Cancer Research : BCR, 2014).

Tests used:
PI3K = assay: Kinase assay of PI3Kα, PI3Kβ, PI3Kδ, PI3Kγ and mutant PI3Kα (H1047R and E542K), PI3-kinase HTRF assay; format: biochemical; details: Figure S1C
Procedure: (§1) The kinase activity of PI3Kα, PI3Kβ, PI3Kδ and PI3Kγ, mutant PI3Kα (H1047R and E542K) mammalian target of rapamycin (mTOR) and DNA-PK was measured as described previously. The protein kinase assays depicted in Figure S1 in Additional file 1 and Table S2 in Additional file 2 were performed at ProQinase, GmbH [18].
(§2) Supplementary file 13058_2014_482_MOESM1_ESM.jpeg: Additional file 1: Figure S1.: Comparative analysis of ETP-45658 and PI-103. (A) Chemical structure of ETP-45658 and PI-103. (B) Physiochemical properties of ETP-45658 and PI-103, including molecular polar surface area (PSA), partition coefficient (LogP), ACD clogD and solubility at two different pH values including Lipinsky’s Rule of Five (RoF) analysis. (C) Inhibitory activity against PI3K and mTOR. The kinase activity of PI3K was measured by using the commercial PI3-kinase HTRF™ assay mTOR activity by LanthaScreen™. (D) ETP-45658 and PI-103 screen against a panel of 24 kinases. The value shown indicates kinase inhibition (percentage +/− standard deviation) at 10 μM. (E) Migration of MDA-MB231 cells in a two compartment Boyden chamber for 72 hours in the presence of DMSO, ETP-45658 or PI-103 (N = 3). (JPEG 662 KB)

MDA-MB231 cells = assay: Boyden chamber matrigel invasion assay; format: cell-based, human; details: 72 hours; for capacity of MDA-MB231 cells to migrate through the matrigel: Figure S1E; for cell viability in invasion assay: MDA-MB231
Procedure: Cell-invasive capacity was determined using two-compartment Boyden chamber matrigel invasion assay (BD BioCoat™ Matrigel™ Invasion Chambers, BD Biosciences 354480, BD Biosciences, San Jose, CA, USA). MDA-MB231 cells were allowed to invade for 72 hours at 37°C. All of the inserts and the liquid in each well of the companion plate were removed. 10% serum RPMI medium with 5 μM calcein was added to each and incubated for 1 hour (in darkness). Fluorescence was measured with a luminometer (Envision, PerkinElmer, Inc, Waltham, MA, USA) at 485/535 nm and the results were analyzed in Activity Base (IDBS, Guildford, UK).
as §2

[1] = tested on: serine 253-phosphorylated FOXO3a; assay: Immunoblot of FOXO3a phosphorylation in MCF-7 or U2OS cells; format: cell-based, human; details: breast or osteosarcoma cancer cells; six hours post treatment
[2] = tested on: FOXO3a promoter recruitment in MCF-7 or MDA-MB231 cells; assay: Chromatin immunoprecipitation (ChIP) for FOXO3a promoter recruitment; format: cell-based, human; details: by six hours post treatment
Procedure: Chromatin immunoprecipitation (ChIP) assays were performed essentially the same as described in [28]. Briefly, cells were fixed with 1% formaldehyde, and then whole-cell lysates were prepared. Protein lysate was subjected to ChIP with the indicated antibodies, followed by DNA purification (Invitrogen, Waltham, MA, USA). ChIP-enriched DNA was analyzed by PCR with the indicated primer sets (Table S1 in Additional file 3) purchased from NZYTech (Lisbon, Portugal). Visualization of bands was achieved using a BioRad Chemidoc XRS+ (BioRad) and quantified using the Image Lab software (BioRad).
Figure 5 Chromatin immunoprecipitation analysis for FOXO3a promoter recruitment. (A) Chromatin immunoprecipitation (ChIP) assays for FOXO3a following ETP-45658 treatment at three or six hours of MCF-7 or MDA-MB231 cells for […], CDKN1B, BCL2L11or FASLG. IgG indicates no specific antibody used and for simplicity, only inputs from our MCF-7 samples are shown. (B and C) Quantification of our ChIP gels normalised to inputs from each respective cell line. Error bars indicate standard deviation, N = 3.

mTOR = mTOR (Homo sapiens, UniProt P42345); assay: mTOR kinase assay (LanthaScreen); format: biochemical; details: for inhibitory activity against mTOR: Figure S1C
Procedure: as §1, §2

[3] = target: panel of 24 representative kinases; assay: Protein kinase panel screen (ProQinase); format: biochemical, human; details: 10 μM
Procedure: The protein kinase assays depicted in Figure S1 in Additional file 1 and Table S2 in Additional file 2 were performed at ProQinase, GmbH [18].
Our first objective was to analyse the biological activity of ETP-45658 including the physical and chemical properties of this compound compared to the reference pan-class I PI3K and mTOR inhibitor PI-103 [9]. We characterised the structure of each compound (Figure S1A in Additional file 1) and conducted the in silico analysis of each compound to measure their physiochemical properties (Figure S1B in Additional file 1). We determined the molecular polar surface area (PSA) of each compound, the partition coefficient, the distribution coefficient, compound solubility and the number of hydrogen donors and acceptors. […] Each indicated protein kinase activity was assayed following 10 μM treatment with either compound.
Supplementary file 13058_2014_482_MOESM1_ESM.jpeg: Additional file 1: Figure S1.: Comparative analysis of ETP-45658 and PI-103. (A) Chemical structure of ETP-45658 and PI-103. (B) Physiochemical properties of ETP-45658 and PI-103, including molecular polar surface area (PSA), partition coefficient (LogP), ACD clogD and solubility at two different pH values including Lipinsky’s Rule of Five (RoF) analysis. […] The kinase activity of PI3K was measured by using the commercial PI3-kinase HTRF™ assay mTOR activity by LanthaScreen™. […]

[4] = tested on: PC3, MCF7, MV4.11, T47D, HCT-116 and NCIH46 cells; assay: cells; format: cell-based; details: Homo sapiens; range over all tested cell lines; MTT 72 hours; read-out: EC50 value for the inhibition of proliferation, inhibitory range
Procedure: Cells were seeded in 96-well microtitre plates. Compounds (in DMSO) were added to each well (at a final concentration of 10 μM). The medium was removed from the cells and replaced with 0.2 ml of medium containing either compound for 72 hours and then processed for MTT assay (Promega Corp, Madison, WI, USA) N = 6.
We determined the EC50 value for the inhibition of proliferation in each of the following cell lines, PC3, MCF7, MV4.11, T47D, HCT-116 and NCIH46 cells.

SMILES | inhibitory activity against PI3K (PI3K) | capacity of MDA-MB231 cells to migrate through the matrigel (MDA-MB231 cells) | cell viability in invasion assay (MDA-MB231 cells) | serine 253-phosphorylated FOXO3a [1] | FOXO3a promoter recruitment (CCNG2, CDKN1B, BCL2L11, FASLG) [2] | inhibitory activity against mTOR (mTOR) | potency against mTOR relative to PI-103 (mTOR; compared to reference compound PI-103) | kinases significantly inhibited in panel of 24 kinases [3] | EC50 [4] [µM]
Cn1ncc2c(N3CCOCC3)nc(-c3cccc(O)c3)nc21 [ETP-45658] | potently inhibited | inhibited | without significantly affecting cell viability | almost complete absence | statistically significant FOXO3a promoter recruitment | inhibited | almost three times more potent | only mutated BRAF was significantly inhibited | –
Oc1cccc(-c2nc(N3CCOCC3)c3oc4ncccc4c3n2)c1 [PI-103] | slightly more effective | inhibited | without significantly affecting cell viability | almost complete absence | – | significantly less potent | – | only mutated BRAF was significantly inhibited | 0.049 to 1.76
